We go through 18 compounds from US4960908A, “Isoflavone derivatives, salts thereof, and oncostatic and immunosuppressive agents” (Yamanouchi Pharmaceutical Co., Ltd., priority 1985, dated 1990).

For one assay, the system named is RSV-3Y1 cells. The assay can be described thus: Inhibitory action against the growth of tumor cells (RSV-3Y1 cells). The note with it: Rattus norvegicus, live cells counted after 1, 2, 3 and 4 days using trypan blue, read-out: IC50, Inhibition against the growth of RSV-3Y1. Format: cell-based. As for the experimental part: The inhibitory action of the compounds of this invention against the growth of tumor cells was examined by using cells of rats transformed by Rous sarcoma virus (RSV-3Y1 cells).
The inhibitory actions of the compounds of Examples 1 through 17 against the tyrosine-specific protein kinase activity and against the growth of RSV-3Y1 cells were measured according to the methods described earlier.

Assay [1] deals with antibody-forming cells (ovine erythrocytes immunization). The assay can be described thus: Immunosuppressive action: antibody-formation inhibition (hemolytic plaques, antibody-forming cells in the spleen). Format: in vivo, male ddy mouse. The note with it: abdominal injection, once a day over four days, mouse.
Description: The spleen was taken out five days after immunization, and the number of antibody-formingcells contained in it was measured as follows according to the method of Cunningham [Cunningham A. J.: Nature, 207, 1106 (1965)]. The splenetic cells were suspended in Eagle's MEM (Nissui Pharmaceutical), ovine erythrocytes and guinea-pig complement were added to this suspension, the resulting mixture was put in a Cunningham chamber (with its both ends sealed with paraffin) and incubated at 37° C. for 90 minutes, and the number of hemolytic plaques (a) (the number of antibody-forming cells) was counted.
Similarly, the number of hemolytic plaques (b) was measured with a mouse not injected with the compound of this invention (control). The antibody-formation inhibition rate was calculated according to the following equation: [formula]
For assay [2], the target named is tyrosine-specific protein kinase derived from Rous sarcoma virus (src gene pp60^src) (Rous sarcoma virus (strain Schmidt-Ruppin A), UniProt P00524). The assay can be described thus: Inhibitory action against tyrosine-specific protein kinase activity. Format: biochemical. As for the experimental part:
The inhibitory action against tyrosine-specific protein kinase activity of the compounds of this invention was measured according to the method described below using tyrosine-specific protein kinase derived from Rous sarcoma virus (src gene pp60^src).
Measurement of tyrosine-specific protein kinase activity (src gene pp60^src derived from Rous sarcoma virus) (refer to M. S. Colet, R. L. Ericson: Proceeding of the National Academy of Sciences of U.S.A., 75, 2021-2024, 1978).
3Y1 cells (fibroblasts derived from fetal rat kidney) transformed by Rous sarcome virus (RSV) were cultured, the cultured cells were collected and washed, RIPA buffer solution [containing 0.5% NP40, 0.1% sodium deoxycholate, 50 mM Tris-HCl (pH 7.2), 1 mM phenylmethylsulfonyl fluoride (PMSF) and 0.15M NaCl] was added to the collected cells, the mixture was allowed to stand at 0° C. for 30 minutes to effect solubilization, and the resulting mixture was centrifuged (100,000× g, 20 minutes). To the supernatant thus collected, was added antiserum obtained from a rabbit cancered by inoculation of RSV, the mixture was incubated at 0° C. for 30 to 60 minutes to cause pp60^src to react with antibody, and the immune complex was isolated by mixing with protein A/Sepharose-4B (Pharmacia) and washed with RIPA buffer. The total complex thus obtained (pp60^src /antibody/protein A/Sepharose-4B) was treated in a solution containing 20 mM Pipes/NaOH (pH 7.2), 5 mM MgCl2, 1 mM DTT and 10 μM [γ-^32 p]ATP (2 mCi/mMol) at 30° C. for five minutes to effect protein kinase reaction, which was terminated by addition a terminating solution containing SDS followed by boiling for three minutes. The reaction mixture was subjected to electrophoresis on 8% SDS/polyacrylamide gel and then to autoradiography, and the radioactivity of cut-out pp60^src band was measured on a liquid scintillation counter, thus quantifying the protein kinase reaction and calculating IC50 value.

The conditions of assay [3]: reported in J.A.C.S. (page 3447, 1951); cited from earlier work.
Where [4] appears, read: 5 mg/Kg for each administration.
The mark [5] stands for this setting: 25 mg/Kg for each administration.

≈ marks a conversion by molar mass, not a printed value. Structures can show the parent of a compound that is named as a salt. A value given as a limit tells only on which side of the number the result lay.

Sequence of tyrosine-specific protein kinase derived from Rous sarcoma virus (src gene pp60^src) (P00524 2-526): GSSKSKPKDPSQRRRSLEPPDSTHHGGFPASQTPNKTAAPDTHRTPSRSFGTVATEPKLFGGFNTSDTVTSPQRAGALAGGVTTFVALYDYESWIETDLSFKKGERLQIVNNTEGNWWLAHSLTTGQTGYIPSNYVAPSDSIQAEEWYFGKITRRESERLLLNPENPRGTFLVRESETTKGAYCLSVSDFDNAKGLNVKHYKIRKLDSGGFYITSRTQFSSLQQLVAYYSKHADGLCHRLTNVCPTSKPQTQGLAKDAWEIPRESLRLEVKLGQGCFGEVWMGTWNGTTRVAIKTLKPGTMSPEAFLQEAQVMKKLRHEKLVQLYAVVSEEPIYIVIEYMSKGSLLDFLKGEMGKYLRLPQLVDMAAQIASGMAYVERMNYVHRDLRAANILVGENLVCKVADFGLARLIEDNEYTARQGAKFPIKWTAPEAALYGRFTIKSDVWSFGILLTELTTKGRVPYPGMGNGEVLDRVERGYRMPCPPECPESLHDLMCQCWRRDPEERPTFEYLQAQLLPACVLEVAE

Regarding `CCOC(=O)C(=O)Oc1ccc(-c2c(C(=O)OCC)oc3cc(O)cc(O)c3c2=O)cc1` [Example 1, ethyl 4'-ethoxalyloxy-5,7-dihydroxy-2-isoflavonecarboxylate], the IC50 is more than 100 µg/mL with RSV-3Y1 cells and 2.26 µM in assay [2]. Further, the Antibody-formation inhibition rate is reported as 14.4% in assay [1] (1 mg/Kg for each administration), 28.7% in assay [1] (setting [4]), 40.0% in assay [1] (setting [5]) and 75.8% in assay [1] (50 mg/Kg for each administration).
On to `COc1ccc(-c2c(CN(C)C)oc3cc(O)cc(O)c3c2=O)cc1` [Example 2, 2-(dimethylaminomethyl)-5,7-dihydroxy-4'-methoxyisoflavone hydrochloride], for which the IC50 was 18 µg/mL in the assay on RSV-3Y1 cells and more than 293 µM in assay [2].
For `COc1ccc(-c2c(CNC3CCCCC3)oc3cc(O)cc(O)c3c2=O)cc1` [Example 3, 2-(Cyclohexylaminomethyl)-5,7-dihydroxy-4'-methoxyisoflavone hydrochloride] the same measures were 16 µg/mL and more than 253 µM.
The like results for `COc1ccc(-c2c(CNCCO)oc3cc(O)cc(O)c3c2=O)cc1.Cl` [Example 4, 5,7-Dihydroxy-2-[(2-hydroxyethylamino)methyl]-4'-methoxyisoflavone hydrochloride] were, in that order, more than 100 µg/mL and more than 254 µM.
For `O=c1c(-c2ccc(O)cc2)c(CN2CCCCC2)oc2cc(O)cc(O)c12` [Example 5, 4',5,7-trihydroxy-2-piperidinomethylisoflavone], in the assay with RSV-3Y1 cells, the IC50 was determined as 9.5 µg/mL (≈ 25.9 µM).
On to `O=c1c(-c2ccc(O)cc2)c(CNC2=NCCS2)oc2cc(O)cc(O)c12` [Example 6, 4',5,7-Trihydroxy-2-[(2-thiazolin-2-ylamino)methyl]isoflavone], for which the IC50 was more than 100 µg/mL in the assay on RSV-3Y1 cells and 39 µM in assay [2].
As for `NC(=O)c1oc2cc(O)cc(O)c2c(=O)c1-c1ccc(O)cc1` [Example 7, 4',5,7-trihydroxy-2-isoflavonecarboxamide], in the assay with RSV-3Y1 cells, the IC50 is more than 100 µg/mL.
As to `CNC(=O)c1oc2cc(O)cc(O)c2c(=O)c1-c1ccc(O)cc1` [Example 8, 4',5,7-trihydroxy-N-methyl-2-isoflavonecarboxamide], the IC50 with RSV-3Y1 cells is more than 100 µg/mL; in assay [2] it was 45.8 µM.
For `O=C(NCCO)c1oc2cc(O)cc(O)c2c(=O)c1-c1ccc(O)cc1` [Example 9, 4',5,7-trihydroxy-N-(2-hydroxyethyl)-2-isoflavonecarboxamide] the same measures were more than 100 µg/mL and 42 µM.
Turning to `CSCc1oc2cc(O)cc(O)c2c(=O)c1-c1ccc(O)cc1` [Example 10, 4',5,7-trihydroxy-2-(methylthiomethyl)isoflavone], the IC50 with RSV-3Y1 cells was determined as 20 µg/mL (≈ 60.5 µM).
On the same count and under the same terms, the same measure for `O=c1c(-c2ccc(O)cc2)c(CSC2=NCCS2)oc2cc(O)cc(O)c12` [Example 11]: 20 µg/mL (≈ 49.8 µM).
For the compound `CCOC(=O)CSCc1oc2cc(O)cc(O)c2c(=O)c1-c1ccc(O)cc1` [Example 12, Ethyl [[(4',5,7-trihydroxy-2-isoflavonyl)methyl]thio]acetate], the half-maximal inhibitory concentration (IC50) with RSV-3Y1 cells is more than 100 µg/mL. Besides, the Antibody-formation inhibition rate in assay [1] (setting [4]) was 25.3%; in assay [1] (setting [5]), 50.0%.
Regarding `O=c1c(-c2ccc(O)cc2)c(CSCC(O)CO)oc2cc(O)cc(O)c12` (stereo not drawn) [Example 13, 2-[[(2,3-Dihydroxypropyl)thio]methyl]-4', 5,7-trihydroxyisoflavone], the IC50 is more than 100 µg/mL in the assay with RSV-3Y1 cells and 10.2 µM in assay [2]. In addition, the Antibody-formation inhibition rate in assay [1] (setting [4]) is listed as 27.0%; in assay [1] (setting [5]), 76.6%.
Consider `O=C(O)CCSCc1oc2cc(O)cc(O)c2c(=O)c1-c1ccc(O)cc1` [Example 14], for which the results for the IC50 (in the assay on RSV-3Y1 cells; in assay [2]) were 90 µg/mL (≈ 232 µM) and 25.7 µM, respectively.
In the case of `COC(=O)c1oc2cc(O)cc(O)c2c(=O)c1-c1ccc(O)cc1` [Example 15], the IC50 in the assay with RSV-3Y1 cells was determined as 60 µg/mL (≈ 183 µM).
Regarding `CC(C)OC(=O)c1oc2cc(O)cc(O)c2c(=O)c1-c1ccc(O)cc1` [Example 16, isopropyl 4',5,7-trihydroxy-2-isoflavonecarboxylate], the IC50 in the assay with RSV-3Y1 cells was 25 µg/mL (≈ 70.2 µM).
For `COCCOC(=O)c1oc2cc(O)cc(O)c2c(=O)c1-c1ccc(O)cc1` [Example 17, Methoxyethyl 4',5,7-trihydroxy-2-isoflavonecarboxylate], the results for the IC50 (in the assay with RSV-3Y1 cells; in assay [2]) were 60 µg/mL (≈ 161 µM) and 16.1 µM, respectively.
`O=c1c(-c2ccc(O)cc2)coc2cc(O)cc(O)c12` [genistein, 5,7,4'-trihydroxyisoflavone]: the estrogenic action entry in assay [3] is on record as “weak estrogenic action”.

As usually defined, the IC50 is the concentration that inhibits the measured activity by half.
